Numbered stars: 1 amine (or outer) side, 2 acyl side, 3 side chain; on linkers, the order of the positions; unused ones are H or OH. Bridge positions count the residues as written; N and C are the ends. Peptide text beside a SMILES is read from it. I, II: the chains in the order shown. X1 = C[C@@H](CNC(=O)N[C@@H](C)CNC(=O)[*:2])NC(=O)NC[C@H](C)N[*:1]; X7 = C[C@@H](CNC(=O)N[C@@H](C)CNC(=O)[*:1])NC(=O)NC[C@H](C)N[*:2]; X6 = CC(CNC(=O)NC(C)CNC(=O)[*:1])NC(=O)NCC(C)N[*:2]
These compounds were tested against T1, mouse GLP-1 receptor endogenously expressed in βTC6 cells (Mus musculus, UniProt O35659) (assay: cAMP production functional assay (HTRF), agonist activity at GLP-1R). Conditions: cAMP production; Table 1.
T1 construct: host or cells: βTC6 cells
T1 sequence (O35659 22-463): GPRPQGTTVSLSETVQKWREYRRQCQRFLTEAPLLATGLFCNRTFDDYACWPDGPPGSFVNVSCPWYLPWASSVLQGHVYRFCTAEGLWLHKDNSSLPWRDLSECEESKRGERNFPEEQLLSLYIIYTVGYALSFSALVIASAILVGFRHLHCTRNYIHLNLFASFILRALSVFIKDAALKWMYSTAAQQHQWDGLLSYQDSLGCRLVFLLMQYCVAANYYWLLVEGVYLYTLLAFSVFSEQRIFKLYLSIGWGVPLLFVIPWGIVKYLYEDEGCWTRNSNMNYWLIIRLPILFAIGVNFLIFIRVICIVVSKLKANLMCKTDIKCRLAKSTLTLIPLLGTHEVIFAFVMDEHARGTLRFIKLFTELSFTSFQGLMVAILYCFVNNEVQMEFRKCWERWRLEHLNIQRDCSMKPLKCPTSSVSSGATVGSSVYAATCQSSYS
Assay type: cell-based
Method: The agonistic activity of these hybrids were obtained by functional assays using cells expressing the […] and by measuring the receptor-mediated cAMP produced (see supporting information).
In vitro pharmacology (EC50). […] Following incubation, the cells were lysed and the fluorescence acceptor (D2-labeled cAMP) and fluorescence donor (anti-cAMP antibody labeled with europium cryptate) were added.

Potency (%), percentage of potency compare to GLP-1-G^2 | SMILES
<0.01% | CC[C@H](C)[C@H](NC(=O)[C@H](Cc1ccccc1)NC(=O)[C@H](CCC(=O)O)NC(=O)[C@H](CCCCN)NC(=O)[C@H](C)NC(=O)[C@H](C)NC(=O)[C@H](CCC(N)=O)NC(=O)NCC(C)NC(=O)NCC(C)NC(=O)NCC(C)NC(=O)[C@H](CO)NC(=O)[C@H](CO)NC(=O)[C@@H](NC(=O)[C@H](CC(=O)O)NC(=O)[C@H](CO)NC(=O)[C@@H](NC(=O)[C@H](Cc1ccccc1)NC(=O)[C@@H](NC(=O)CNC(=O)[C@H](CCC(=O)O)NC(=O)CNC(=O)[C@@H](N)Cc1c[nH]cn1)[C@@H](C)O)[C@@H](C)O)C(C)C)C(=O)N[C@@H](C)C(=O)N[C@@H](Cc1c[nH]c2ccccc12)C(=O)N[C@@H](CC(C)C)C(=O)N[C@H](C(=O)N[C@@H](CCCCN)C(=O)NCC(=O)N[C@@H](CCCNC(=N)N)C(=O)NCC(N)=O)C(C)C (stereo partly shown) [Compound 7, GG2[A^UA^UA^U]^13-16] (I: QAAKEFIAWLVKGRG-NH2 / II: H-HGEGTFTSDVSS; linker I:N-II:C via X6)
0.2% | CC[C@H](C)[C@H](NC(=O)[C@H](Cc1ccccc1)NC(=O)[C@H](CCC(=O)O)NC(=O)[C@H](CCCCN)NC(=O)[C@H](C)NC(=O)NC[C@H](C)NC(=O)NC[C@H](C)NC(=O)NC[C@H](C)NC(=O)[C@H](CC(C)C)NC(=O)[C@H](Cc1ccc(O)cc1)NC(=O)[C@H](CO)NC(=O)[C@H](CO)NC(=O)[C@@H](NC(=O)[C@H](CC(=O)O)NC(=O)[C@H](CO)NC(=O)[C@@H](NC(=O)[C@H](Cc1ccccc1)NC(=O)[C@@H](NC(=O)CNC(=O)[C@H](CCC(=O)O)NC(=O)CNC(=O)[C@@H](N)Cc1c[nH]cn1)[C@@H](C)O)[C@@H](C)O)C(C)C)C(=O)N[C@@H](C)C(=O)N[C@@H](Cc1c[nH]c2ccccc12)C(=O)N[C@@H](CC(C)C)C(=O)N[C@H](C(=O)N[C@@H](CCCCN)C(=O)NCC(=O)N[C@@H](CCCNC(=N)N)C(=O)NCC(N)=O)C(C)C [Compound 10, GG2[A^UA^UA^U]^15-18] (I: H-HGEGTFTSDVSSYL / II: AKEFIAWLVKGRG-NH2; linker I:C-II:N via X1)
0.1% | CC[C@H](C)[C@H](NC(=O)[C@H](Cc1ccccc1)NC(=O)[C@H](CCC(=O)O)NC(=O)[C@H](CCCCN)NC(=O)NC[C@H](C)NC(=O)NC[C@H](C)NC(=O)NC[C@H](C)NC(=O)[C@H](CCC(=O)O)NC(=O)[C@H](CC(C)C)NC(=O)[C@H](Cc1ccc(O)cc1)NC(=O)[C@H](CO)NC(=O)[C@H](CO)NC(=O)[C@@H](NC(=O)[C@H](CC(=O)O)NC(=O)[C@H](CO)NC(=O)[C@@H](NC(=O)[C@H](Cc1ccccc1)NC(=O)[C@@H](NC(=O)CNC(=O)[C@H](CCC(=O)O)NC(=O)CNC(=O)[C@@H](N)Cc1c[nH]cn1)[C@@H](C)O)[C@@H](C)O)C(C)C)C(=O)N[C@@H](C)C(=O)N[C@@H](Cc1c[nH]c2ccccc12)C(=O)N[C@@H](CC(C)C)C(=O)N[C@H](C(=O)N[C@@H](CCCCN)C(=O)NCC(=O)N[C@@H](CCCNC(=N)N)C(=O)NCC(N)=O)C(C)C [Compound 12, GG2[A^UA^UA^U]^16-19]
0.01% | CC[C@H](C)[C@H](NC(=O)[C@H](Cc1ccccc1)NC(=O)[C@H](CCC(=O)O)NC(=O)NC[C@H](C)NC(=O)NC[C@H](C)NC(=O)NC[C@H](C)NC(=O)CNC(=O)[C@H](CCC(=O)O)NC(=O)[C@H](CC(C)C)NC(=O)[C@H](Cc1ccc(O)cc1)NC(=O)[C@H](CO)NC(=O)[C@H](CO)NC(=O)[C@@H](NC(=O)[C@H](CC(=O)O)NC(=O)[C@H](CO)NC(=O)[C@@H](NC(=O)[C@H](Cc1ccccc1)NC(=O)[C@@H](NC(=O)CNC(=O)[C@H](CCC(=O)O)NC(=O)CNC(=O)[C@@H](N)Cc1c[nH]cn1)[C@@H](C)O)[C@@H](C)O)C(C)C)C(=O)N[C@@H](C)C(=O)N[C@@H](Cc1c[nH]c2ccccc12)C(=O)N[C@@H](CC(C)C)C(=O)N[C@H](C(=O)N[C@@H](CCCCN)C(=O)NCC(=O)N[C@@H](CCCNC(=N)N)C(=O)NCC(N)=O)C(C)C [Compound 13, GG2[A^UA^UA^U]^17-20]

Second part, the compound before the results:

SMILES | Potency (%), percentage of potency compare to GLP-1-G^2
CC[C@H](C)[C@H](NC(=O)[C@H](Cc1ccccc1)NC(=O)[C@H](CCC(=O)O)NC(=O)[C@H](CCCCN)NC(=O)[C@H](C)NC(=O)[C@H](C)NC(=O)[C@H](CCC(N)=O)NC(=O)CNC(=O)[C@H](CCC(=O)O)NC(=O)[C@H](CC(C)C)NC(=O)NC[C@H](C)NC(=O)NC[C@H](C)NC(=O)NC[C@H](C)NC(=O)[C@H](CC(=O)O)NC(=O)[C@H](CO)NC(=O)[C@@H](NC(=O)[C@H](Cc1ccccc1)NC(=O)[C@@H](NC(=O)CNC(=O)[C@H](CCC(=O)O)NC(=O)CNC(=O)[C@@H](N)Cc1c[nH]cn1)[C@@H](C)O)[C@@H](C)O)C(=O)N[C@@H](C)C(=O)N[C@@H](Cc1c[nH]c2ccccc12)C(=O)N[C@@H](CC(C)C)C(=O)N[C@H](C(=O)N[C@@H](CCCCN)C(=O)NCC(=O)N[C@@H](CCCNC(=N)N)C(=O)NCC(N)=O)C(C)C [Compound 3, GG2[A^UA^UA^U]^10-13] | 0.04%
CC[C@H](C)[C@H](NC(=O)[C@H](Cc1ccccc1)NC(=O)[C@H](CCC(=O)O)NC(=O)[C@H](CCCCN)NC(=O)[C@H](C)NC(=O)[C@H](C)NC(=O)[C@H](CCC(N)=O)NC(=O)CNC(=O)[C@H](CCC(=O)O)NC(=O)NC[C@H](C)NC(=O)NC[C@H](C)NC(=O)NC[C@H](C)NC(=O)[C@@H](NC(=O)[C@H](CC(=O)O)NC(=O)[C@H](CO)NC(=O)[C@@H](NC(=O)[C@H](Cc1ccccc1)NC(=O)[C@@H](NC(=O)CNC(=O)[C@H](CCC(=O)O)NC(=O)CNC(=O)[C@@H](N)Cc1c[nH]cn1)[C@@H](C)O)[C@@H](C)O)C(C)C)C(=O)N[C@@H](C)C(=O)N[C@@H](Cc1c[nH]c2ccccc12)C(=O)N[C@@H](CC(C)C)C(=O)N[C@H](C(=O)N[C@@H](CCCCN)C(=O)NCC(=O)N[C@@H](CCCNC(=N)N)C(=O)NCC(N)=O)C(C)C [Compound 4, GG2[A^UA^UA^U]^11-14] (I: EGQAAKEFIAWLVKGRG-NH2 / II: H-HGEGTFTSDV; linker I:N-II:C via X7) | 0.2%
CC[C@H](C)[C@H](NC(=O)[C@H](Cc1ccccc1)NC(=O)[C@H](CCC(=O)O)NC(=O)[C@H](CCCCN)NC(=O)[C@H](C)NC(=O)[C@H](C)NC(=O)[C@H](CCC(N)=O)NC(=O)CNC(=O)NCC(C)NC(=O)NCC(C)NC(=O)NCC(C)NC(=O)[C@H](CO)NC(=O)[C@@H](NC(=O)[C@H](CC(=O)O)NC(=O)[C@H](CO)NC(=O)[C@@H](NC(=O)[C@H](Cc1ccccc1)NC(=O)[C@@H](NC(=O)CNC(=O)[C@H](CCC(=O)O)NC(=O)CNC(=O)[C@@H](N)Cc1c[nH]cn1)[C@@H](C)O)[C@@H](C)O)C(C)C)C(=O)N[C@@H](C)C(=O)N[C@@H](Cc1c[nH]c2ccccc12)C(=O)N[C@@H](CC(C)C)C(=O)N[C@H](C(=O)N[C@@H](CCCCN)C(=O)NCC(=O)N[C@@H](CCCNC(=N)N)C(=O)NCC(N)=O)C(C)C (stereo partly shown) [Compound 6, GG2[A^UA^UA^U]^12-15] (I: GQAAKEFIAWLVKGRG-NH2 / II: H-HGEGTFTSDVS; linker I:N-II:C via X6) | <0.01%

— patent US11285219B2, “Peptide-oligourea hybrid compounds” (UREKA SARL, priority 2019, dated 2022)
